Measured values published in US9309254B2, “Pyrimidinyl-diazospiro compounds” (CONVERGENCE PHARMACEUTICALS LIMITED, priority 2012, dated 2016).
Where a name gives a salt, the structure may show the parent alone. Read-outs that look alike come from different tables or passages of the source.

Target: T1, hNaV1.7 (Homo sapiens, UniProt Q15858)
T1 construct: expressed in transfected cells; host or cells: HEK293
Assay: QPatch NaV1.7 assay
Type: cell-based
Conditions: HEK293-hNaV1.7 cells, QPatch16x
Procedure: The compounds of the invention were tested in a QPatch NaV1.7 assay.
HEK293-hNaV1.7 cells were grown in DMEM-F12+10% FBS culture media at 37° C. At a confluency of 50-70% cells were dissociated from culture flasks & triturated to ensure unicellular cell suspension; cell density was measured & adjusted to 2-3×10^6 cells/ml. Recordings were obtained using QPatch16x. The external solution was (in mM): NaCl, 128; KCl, 5; MgCl2, 2; CaCl2, 2; Glucose, 30; HEPES, 15; pH 7.3, 305-315 mOsm. Following seal formation and whole-cell access using internal solution (containing in mM: CsF, 135; EGTA/CsOH, 1/5; HEPES 10; NaCl, 10; pH 7.3, 310-320mOsM), voltage pulse protocols were applied. Initially a steady state inactivation voltage protocol was used to determine the half-maximal voltage for steady state inactivation (V1/2 SSI). Two holding voltages were used to determine test drug inhibition: −90 mV, where most of the channels are in a closed state; and V1/2 SSI, where half of the channels are inactivated. Currents were elicited every 10 seconds by stepping to a membrane potential of 0 mV for 20 ms. Four-point cumulative concentration responses were derived by determining the peak current amplitude at each concentration of test drug over 120 second application. Curves were fitted with the Hill equation yielding pIC50 values at −90 mV and V1/2 SSI holding potentials.

[1] = holding voltage V1/2 SSI, where half of the channels are inactivated, read-out: QP Nav1.7 SSI vhalf pIC50 (converted)
[2] = holding voltage −90 mV, where most of the channels are in a closed state, read-out: QP Nav1.7 - 90 mV pIC50 (converted)

T1 sequence (Q15858 whole entry): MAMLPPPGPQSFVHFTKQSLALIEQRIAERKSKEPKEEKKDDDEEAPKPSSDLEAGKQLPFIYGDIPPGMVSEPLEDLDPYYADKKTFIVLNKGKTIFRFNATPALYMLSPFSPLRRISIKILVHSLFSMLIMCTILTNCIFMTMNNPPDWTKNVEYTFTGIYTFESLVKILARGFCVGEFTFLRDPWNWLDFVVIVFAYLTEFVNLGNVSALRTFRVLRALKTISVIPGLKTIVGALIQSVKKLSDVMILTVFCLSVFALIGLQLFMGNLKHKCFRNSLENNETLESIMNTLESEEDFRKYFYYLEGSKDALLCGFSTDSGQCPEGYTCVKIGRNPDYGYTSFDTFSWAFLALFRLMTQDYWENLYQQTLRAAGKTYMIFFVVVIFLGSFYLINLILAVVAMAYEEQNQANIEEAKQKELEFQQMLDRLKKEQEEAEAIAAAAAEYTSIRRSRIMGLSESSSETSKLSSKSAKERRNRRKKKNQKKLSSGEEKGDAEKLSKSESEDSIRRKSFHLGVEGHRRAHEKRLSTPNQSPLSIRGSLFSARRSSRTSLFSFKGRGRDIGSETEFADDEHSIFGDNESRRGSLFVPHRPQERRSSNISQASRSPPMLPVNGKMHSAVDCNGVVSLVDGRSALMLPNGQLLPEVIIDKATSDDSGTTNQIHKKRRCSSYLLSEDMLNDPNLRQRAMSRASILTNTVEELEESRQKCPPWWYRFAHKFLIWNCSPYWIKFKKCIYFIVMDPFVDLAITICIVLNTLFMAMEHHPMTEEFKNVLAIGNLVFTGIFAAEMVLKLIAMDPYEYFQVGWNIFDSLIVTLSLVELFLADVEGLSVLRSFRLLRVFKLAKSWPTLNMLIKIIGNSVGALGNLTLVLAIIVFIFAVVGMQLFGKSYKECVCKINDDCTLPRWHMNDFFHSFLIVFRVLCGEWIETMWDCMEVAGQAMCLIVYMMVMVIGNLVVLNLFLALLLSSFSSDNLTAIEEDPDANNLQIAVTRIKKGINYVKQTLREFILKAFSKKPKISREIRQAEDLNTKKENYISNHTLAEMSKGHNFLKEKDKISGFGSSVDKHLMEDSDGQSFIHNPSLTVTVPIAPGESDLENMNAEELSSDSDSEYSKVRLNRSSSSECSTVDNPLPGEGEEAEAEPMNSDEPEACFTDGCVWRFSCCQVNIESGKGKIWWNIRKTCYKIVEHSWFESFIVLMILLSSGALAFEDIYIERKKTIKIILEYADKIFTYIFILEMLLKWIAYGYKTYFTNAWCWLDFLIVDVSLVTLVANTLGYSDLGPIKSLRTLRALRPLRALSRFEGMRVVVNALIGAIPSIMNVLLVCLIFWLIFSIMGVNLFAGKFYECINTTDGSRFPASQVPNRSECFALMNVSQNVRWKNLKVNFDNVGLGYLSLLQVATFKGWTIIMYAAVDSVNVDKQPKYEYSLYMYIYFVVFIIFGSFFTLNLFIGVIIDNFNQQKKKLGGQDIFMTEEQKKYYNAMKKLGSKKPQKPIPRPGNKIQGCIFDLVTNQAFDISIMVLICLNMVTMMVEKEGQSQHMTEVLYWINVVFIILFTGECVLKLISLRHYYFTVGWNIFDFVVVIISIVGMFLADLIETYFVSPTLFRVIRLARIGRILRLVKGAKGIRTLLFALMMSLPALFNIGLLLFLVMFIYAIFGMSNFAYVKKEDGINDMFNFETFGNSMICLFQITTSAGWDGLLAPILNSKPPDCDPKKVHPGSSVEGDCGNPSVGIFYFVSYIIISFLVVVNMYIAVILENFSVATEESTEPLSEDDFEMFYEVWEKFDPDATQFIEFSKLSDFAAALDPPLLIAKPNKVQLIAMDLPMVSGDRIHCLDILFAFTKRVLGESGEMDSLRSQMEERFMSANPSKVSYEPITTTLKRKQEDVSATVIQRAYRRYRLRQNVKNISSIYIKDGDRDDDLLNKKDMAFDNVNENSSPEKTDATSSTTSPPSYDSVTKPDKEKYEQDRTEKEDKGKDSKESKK

Row | Structure (SMILES) | IC50 [1] | IC50 [2] | QP Nav1.7 SSI vhalf pIC50 (holding voltage V1/2 SSI, where half of the channels are inactivated)
1 | CCOc1ccc(F)c(-c2cc(C)nc([C@@H]3CC[C@@]4(CCN(C)C4=O)N3)n2)c1 [Example 11, (2S,5S)-2-[4-(5-Ethoxy-2-fluoro-phenyl)-6-methyl-pyrimidin-2-yl]-7-methyl-1,7-diazaspiro[4.4]nonan-6-one hydrochloride] | 3.98 µM | 79.4 µM | 
2 | Cc1cc(-c2ccc(C(F)(F)F)cc2)nc([C@H]2CC[C@]3(CC(C)(C)NC3=O)N2)n1 [Example 46, (2R,5R)-8,8-Dimethyl-2-[4-methyl-6-[4-(trifluoromethyl)phenyl]pyrimidin-2-yl]-1,7-diazaspiro[4.4]nonan-6-one hydrochloride] | 3.16 µM | 25.1 µM | 
3 | CN1CC[C@@]2(CC[C@@H](c3nccc(-c4cccc(OC(F)(F)F)c4)n3)N2)C1=O [Example 19, (2S,5S)-7-Methyl-2-[4-[3-(trifluoromethoxy)phenyl]pyrimidin-2-yl]-1,7-diazaspiro[4.4]nonan-6-one hydrochloride] | 20 µM | 200 µM | 
4 | Cc1cc(-c2ccc(C(F)(F)F)cc2)nc([C@@H]2CC[C@@]3(CCN(C)C3=O)N2)n1 (single isomer, unassigned) [Example 22, hydrochloride] | 63.1 µM | 7940 µM | 
5 | Cc1cc(-c2ccc(C(F)(F)F)cc2)nc([C@@H]2CC[C@]3(CCN(C)C3=O)N2)n1 [Example 5, (2S,5R)-7-Methyl-2-[4-methyl-6-[4-(trifluoromethyl)phenyl]pyrimidin-2-yl]-1,7-diazaspiro[4.4]nonan-6-one hydrochloride] | 100 µM | 79.4 µM | 
6 | Cc1cc(-c2ccc(C(F)(F)F)cc2)nc([C@@H]2CC[C@]3(CCNC3=O)N2)n1 [Example 40, (2S,5R)-2-[4-Methyl-6-[4-(trifluoromethyl)phenyl]-pyrimidin-2-yl]-1,7-diazaspiro[4.4]nonan-6-one hydrochloride] | 31.6 µM | 158 µM | 
7 | Cc1cc(-c2ccc(C(F)(F)F)cc2)nc([C@H]2CC[C@@]3(CCN(C)C3=O)N2)n1.Cl [Example 7, (2R,5S)-7-Methyl-2-[4-methyl-6-[4-(trifluoromethyl)-phenyl]pyrimidin-2-yl]-1,7-diazaspiro[4.4]nonan-6-one hydrochloride] |  | 126 µM | 5.7
8 | Cc1cc(-c2cc(OC(F)(F)F)ccc2F)nc([C@H]2CC[C@@]3(CCN(C)C3=O)N2)n1 [Example 32, (2R,5S)-2-[4-[2-Fluoro-5-(trifluoromethoxy)phenyl]-6-methyl-pyrimidin-2-yl]-7-methyl-1,7-diazaspiro[4.4]nonan-6-one hydrochloride] | 2.51 µM | 39.8 µM | 
9 | Cc1cc(-c2ccc(C(F)(F)F)cc2)nc([C@@H]2CC[C@]3(CC(C)(C)NC3=O)N2)n1 [Example 45, (2S,5R)-8,8-Dimethyl-2-[4-methyl-6-[4-(trifluoromethyl)phenyl]pyrimidin-2-yl]-1,7-diazaspiro[4.4]nonan-6-one hydrochloride] | 20 µM | 100 µM | 
10 | Cc1cc(-c2ccc(C(F)(F)F)cc2)nc([C@@H]2CC[C@@]3(CCNC3=O)N2)n1 [Example 41, (2S,5S)-2-[4-Methyl-6-[4(trifluoromethyl)-phenyl]-pyrimidin-2-yl]-1,7-diazaspiro[4.4]nonan-6-one hydrochloride] | 2.51 µM | 25.1 µM | 
11 | Cc1cc(-c2ccc(C(F)(F)F)cc2)nc([C@H]2CC[C@]3(CCNC3=O)N2)n1 [Example 42, (2R,5R)-2-[4-Methyl-6-[4-(trifluoromethyl)phenyl]pyrimidin-2-yl]-1,7-diazaspiro[4.4]nonan-6-one hydrochloride] | 50.1 µM | 501 µM | 
12 | CCOc1ccc(F)c(-c2cc(C)nc([C@H]3CC[C@@]4(CCCNC4=O)N3)n2)c1 [Example 37, hydrochloride] | 1.58 µM | 15.8 µM | 
13 | Cc1cc(-c2ccc(C(F)(F)F)cc2)nc([C@H]2CC[C@@]3(CCNC3=O)N2)n1 [Example 39, (2R,5S)-2-[4-Methyl-6-[4-(trifluoromethyl)phenyl]pyrimidin-2-yl]-1,7-diazaspiro[4.4]-nonan-6-one hydrochloride] | 15.8 µM | 126 µM | 
14 | CN1CC[C@]2(CC[C@@H](c3nccc(-c4cccc(OC(F)(F)F)c4)n3)N2)C1=O [Example 20, (2S,5R)-7-Methyl-2-[4-[3-(trifluoromethoxy)phenyl]pyrimidin-2-yl]-1,7-diazaspiro[4.4]nonan-6-one hydrochloride] | 25.1 µM | 200 µM | 
15 | CCOc1ccc(F)c(-c2ccnc([C@@H]3CC[C@]4(CCN(C)C4=O)N3)n2)c1 [Example 15, (2S,5R)-2-[4-(5-Ethoxy-2-fluoro-phenyl)pyrimidin-2-yl]-7-methyl-1,7-diazaspiro[4.4]nonan-6-one hydrochloride] | 12.6 µM | 126 µM | 
16 | CN1CC[C@@]2(CC[C@H](c3nccc(-c4ccc(C(F)(F)F)cc4)n3)N2)C1=O [Example 1, (2R,5S)-7-Methyl-2-[4-[4-(trifluoromethyl)phenyl]pyrimidin-2-yl]-1,7-diazaspiro[4.4]nonan-6-one hydrochloride] | 10 µM | 126 µM | 
